# Laboratory results published in publication PMC9636434, “Discovery of small molecule agonists of the Relaxin Family Peptide Receptor 2” (Communications Biology, 2022).
# Several values for one entry are separate records, joined by “and”; a condition that tells them apart may be missing. Equal values may be shown once. Read-outs that look alike come from different tables or passages of the source.
# Tests used:
# Assay type in all cases: cell-based
# [1] = target: RXFP2 (Homo sapiens, UniProt Q8WXD0); test: Confirmatory CRE-luciferase reporter assay in HEK-CRE-Luc-RXFP2 cells; design: FLAG (N); expressed in transfected cells; conditions: for % Eff (CRE-luciferase): experiments (1)-(3)
# Protocol: A quantitative high-throughput screening (HTS) of more than 80 K compounds of the NCATS/NIH diversity collection was performed at four concentrations in HEK293T cells stably expressing human RXFP2 to identify candidate agonists. A homogenous time resolved fluorescence (HTRF) assay was used to directly detect compound-induced cAMP accumulation, with forskolin or human recombinant INSL3 serving as positive controls. […] Selected compounds with reasonable activity in dose response were also tested in a confirmatory orthogonal screening using a cAMP response element (CRE) driven luciferase reporter assay in HEK-CRE-Luc-RXFP2 cells, and in a counter-screen with cells transfected with human relaxin/insulin-like family peptide receptor 1 (RXFP1). Finally, we performed an extensive structure activity relationship campaign (SAR) to increase both the agonist efficacy and potency of the lead series. […] A confirmatory CRE-luciferase cAMP screen was used to eliminate any potential false positives due to assay detection artifacts (Supplementary Fig. 1a).
# HEK293T-CRE-Luc cells express luciferase under the control of the cAMP response element (CRE), which allows for indirect measurement of intracellular cAMP accumulation. HEK293T-CRE-Luc cells were stably transfected with human RXFP2 (HEK-CRE-Luc-RXFP2) or transiently transfected as above with mouse Rxfp2 (HEK-CRE-Luc-Rxfp2). HEK-CRE-Luc-RXFP2 and HEK-CRE-Luc-Rxfp2 cells were seeded at 15,000 and 30,000 cells per well, respectively, in 96-well plates using serum-free DMEM medium and incubated overnight at 37 °C, 5% CO2. After 18 h, cells were treated with a titration of compound, a titration of INSL3, 5 μM forskolin or DMSO vehicle. After treatment, cells were incubated for 3 h at 37 °C, 5% CO2. Plates were then allowed to equilibrate for 30 min at room temperature and an equal volume of substrate (Amplite Luciferase Reporter Gene Assay Kit, AAT Bioquest, Sunnyvale, CA) was added to each well. Plates were incubated for 40 min at room temperature protected from light and the luciferase output was read on a CLARIOstar plate reader.
# Supplementary Fig. 1: Compounds activate both human and mouse RXFP2 receptors. a Confirmatory CRE-Luciferase screening of RXFP2 agonists in st a b ly transfected HEK-CRE-Luc-RXFP2 cells. b Activation of mouse RXFP2 receptor by the compounds in transiently transfected HEK293T-CRE-Luc cells. Compound response was normalized to 100 nM INSL3 as 100% efficacy and DMSO vehicle as 0% efficacy.
# Results are expressed as mean ± SEM of 3 independent experim ents.
# (1 picture or pasted object on this page, not shown here)
# [2] = target: T1, WT RXFP2 (Homo sapiens, UniProt Q8WXD0); test: HTRF cAMP assay in HEK293T cells transiently transfected with WT RXFP2; conditions: for Emax: HEK-293T
# T1 construct: FLAG (N); expressed in transfected cells; host or cells: HEK293T (transient)
# Protocol: Fig. 2 6641 is an allosteric agonist of RXFP2. a HEK-RXFP2 cells co-treated with serial dilutions of INSL3 B dimer antagonist and 30 nM INSL3 or 0.28 µM 6641. HTRF cAMP dose-response inhibition curves were normalized to activity without antagonist co-treatment as 0% inhibition. b HTRF cAMP assay in HEK293T cells transiently transfected with WT or chimeric receptors. Chimera RXFP2-1 contains the extracellular domain of RXFP2 and the transmembrane domain of RXFP1, while chimera RXFP1-2 contains the extracellular domain of RXFP1 and the transmembrane domain of RXFP2. For each receptor, cAMP response induced by INSL3 and 6641 was normalized to FSK (2 µM) as 100% efficacy and DMSO vehicle as 0% efficacy. Emax and EC50 were calculated using four parameter nonlinear fit dose-response curves. Results are expressed as mean ± SEM of 3 independent experiments. Diagrams of the chimeric receptors were produced using GPCRdb.org[58], [59].
# Complementary RXFP2-1 and RXFP1-2 chimeric receptors were used to further investigate the involvement of the RXFP2 extracellular and transmembrane domains on 6641 activity. RXFP2-1 has the extracellular domain of RXFP2 and transmembrane domain of RXFP1, and RXFP1-2 is its complement.
# The HTRF Gs dynamic cAMP assay kit (CisBio, Bedford, MA) was used to measure intracellular cAMP accumulation in HEK293T cells (ATCC, Manassas, VA)[56]. […] The cell stock was verified mycoplasma free and authenticated by ATCC. Transient transfection was accomplished by treating cells in a 6-well plate with a mixture of 2 μg plasmid and 6 μL Lipofectamine 2000 (Invitrogen, Waltham, MA) per manufacturer’s protocol and incubating overnight. For cAMP measurement in 96-well format, HEK293T cells stably transfected with human RXFP2 (HEK-RXFP2), human RXFP1 (HEK-RXFP1), mouse Rxfp1 (HEK-Rxfp1) or transiently transfected with human RXFP1-RXFP2 chimeric receptors were seeded between 7500 and 30,000 cells per well, depending on cell line responsiveness, in serum-free DMEM medium and incubated overnight at 37 °C, 5% CO2. After 18 h, cells were treated with a titration of compound, 2 μM forskolin, or DMSO vehicle. Control wells were also treated with a titration of INSL3 (Phoenix Pharmaceuticals, Burlingame, CA) or human recombinant relaxin 2 (Peprotech, Cranbury, NJ). For the RXFP2 antagonist experiment, cells were co-treated with 0.28 μM compound or 30 nM INSL3 and a titration of the INSL3 B dimer antagonist[38],[39]. For the INSL3 allosteric modulation experiment, cells were co-treated with 0.025, 0.0025, or 0.00025 μM of compound and a titration of INSL3. Cells were incubated for 1 h at 37 °C, 5% CO2, and then kit cAMP-d2 and anti-cAMP antibody were added per manufacturer protocol. Plates were incubated for 1 h at room temperature and the signal was read on a CLARIOstar plate reader (BMG Labtech, Ortenberg, Germany) at 665 and 620 nm emission wavelengths.
# [3] = target: human TSHR (Homo sapiens, UniProt P16473); test: HitHunter cAMP XS+ assay, cAMP Hunter cell line TSHR; conditions: for RLU: replicates (1),(2)
# Description: Results are reported as raw RLU values and represent the
# mean ± SEM of 2 technical replicates.
# Chain of human TSHR (P16473 21-764): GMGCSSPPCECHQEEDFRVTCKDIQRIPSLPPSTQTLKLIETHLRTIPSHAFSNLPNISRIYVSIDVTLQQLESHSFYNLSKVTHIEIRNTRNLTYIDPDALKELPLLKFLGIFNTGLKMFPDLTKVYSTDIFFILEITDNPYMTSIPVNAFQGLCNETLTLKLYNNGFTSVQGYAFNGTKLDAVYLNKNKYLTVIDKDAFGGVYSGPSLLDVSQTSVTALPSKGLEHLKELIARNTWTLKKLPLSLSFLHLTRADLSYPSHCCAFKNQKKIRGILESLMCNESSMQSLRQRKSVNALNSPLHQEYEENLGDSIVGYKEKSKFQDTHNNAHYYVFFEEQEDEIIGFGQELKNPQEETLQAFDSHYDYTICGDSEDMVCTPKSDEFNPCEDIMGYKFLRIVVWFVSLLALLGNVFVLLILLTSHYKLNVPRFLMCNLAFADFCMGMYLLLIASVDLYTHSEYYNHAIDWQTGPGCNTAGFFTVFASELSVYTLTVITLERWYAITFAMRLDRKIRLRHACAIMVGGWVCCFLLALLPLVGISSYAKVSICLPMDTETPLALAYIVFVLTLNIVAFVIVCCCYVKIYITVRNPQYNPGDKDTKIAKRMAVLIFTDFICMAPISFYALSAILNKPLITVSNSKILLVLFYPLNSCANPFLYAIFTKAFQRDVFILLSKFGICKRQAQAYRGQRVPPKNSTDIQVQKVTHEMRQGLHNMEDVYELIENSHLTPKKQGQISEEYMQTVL
# T1 sequence (Q8WXD0 whole entry): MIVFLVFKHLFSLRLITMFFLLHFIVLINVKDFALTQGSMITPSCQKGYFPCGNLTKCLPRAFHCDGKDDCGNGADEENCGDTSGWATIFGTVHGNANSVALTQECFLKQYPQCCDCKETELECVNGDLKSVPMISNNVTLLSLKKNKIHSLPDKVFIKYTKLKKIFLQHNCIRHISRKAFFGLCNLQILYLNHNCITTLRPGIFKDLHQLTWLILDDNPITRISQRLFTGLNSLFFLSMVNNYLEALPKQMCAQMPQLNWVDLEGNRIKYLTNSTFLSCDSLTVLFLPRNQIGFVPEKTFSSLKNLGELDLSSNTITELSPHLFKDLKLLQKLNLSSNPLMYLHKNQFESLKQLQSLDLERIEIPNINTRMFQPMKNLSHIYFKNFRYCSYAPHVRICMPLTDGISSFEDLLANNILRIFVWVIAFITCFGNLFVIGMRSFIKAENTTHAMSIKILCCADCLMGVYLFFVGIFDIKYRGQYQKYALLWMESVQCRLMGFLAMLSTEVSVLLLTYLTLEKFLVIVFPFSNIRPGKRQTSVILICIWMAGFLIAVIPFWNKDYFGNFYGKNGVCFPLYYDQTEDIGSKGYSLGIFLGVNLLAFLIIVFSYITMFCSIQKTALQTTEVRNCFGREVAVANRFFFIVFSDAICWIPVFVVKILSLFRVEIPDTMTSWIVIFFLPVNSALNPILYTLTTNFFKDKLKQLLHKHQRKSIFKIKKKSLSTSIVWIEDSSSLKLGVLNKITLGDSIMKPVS
# Chain of RXFP2 (Q8WXD0 whole entry): as above
smiles,measurement,setting,value
O=C1Nc2ccc(-c3cc(C(F)(F)F)cc(C(F)(F)F)c3)cc2C(=O)N2CCN(C(=O)COc3ccc(OC(F)(F)F)cc3I)C[C@@H]12 [compound 6641],agonism of human RXFP2 in CRE-luciferase reporter assay,[1]; HEK-CRE-Luc-RXFP2,full agonist
same,% Eff (CRE-luciferase),"[1]; Log [M] -4.60, 100 nM INSL3 = 100%, DMSO = 0%",112.29% and 97.22% and 133.29%
same,% Eff (CRE-luciferase),[1]; Log [M] -5.00,116.16% and 119.1% and 157.5%
same,% Eff (CRE-luciferase),[1]; Log [M] -5.78,114.59% and 98.52% and 126.86%
same,% Eff (CRE-luciferase),[1]; Log [M] -6.56,113.18% and 86.94% and 103.38%
same,% Eff (CRE-luciferase),[1]; Log [M] -7.33,77.02% and 61.6% and 70.55%
same,% Eff (CRE-luciferase),[1]; Log [M] -8.11,44.24% and 30.05% and 30.02%
same,% Eff (CRE-luciferase),[1]; Log [M] -8.89,14.74% and 8.06% and 7.85%
same,% Eff (CRE-luciferase),[1]; Log [M] -9.67,6.98% and 1.71% and 0.6%
same,EC50,"[2]; 6641, individual experiments, read-out: EC50 (1)-(3)",4.7 nM and 28 nM and 3.17 nM
same,EC50,"[2]; 6641, mean (± SEM) of 3, read-out: EC50 (AVERAGE)",12 nM
same,Emax,"[2]; individual experiments, FSK (2 µM) = 100% efficacy, DMSO = 0%, read-out: Emax (1)-(3)",91.1%
same,Emax,"[2]; mean (± SEM) of 3, FSK (2 µM) = 100% efficacy, read-out: Emax (AVERAGE)",86.3%
same,Emax (1)-(3),"[2]; individual experiments, FSK (2 µM) = 100% efficacy, DMSO = 0%",79.79% and 88%
same,cAMP response through TSHR,[3]; Hit Hunter cAMP assay,did not result in an increase of cAMP level
same,RLU,[3]; Log [M] -4.70,1000 RLU and 1240 RLU
same,RLU,[3]; Log [M] -5.18,1000 RLU and 1040 RLU
same,RLU,[3]; Log [M] -5.65,960 RLU
same,RLU,[3]; Log [M] -6.13,1040 RLU
same,RLU,[3]; Log [M] -6.61,1200 RLU
same,RLU,[3]; Log [M] -7.08,880 RLU
same,RLU,[3]; Log [M] -7.56,920 RLU and 1000 RLU
same,RLU,[3]; Log [M] -8.04,880 RLU
same,RLU,[3]; Log [M] -8.52,1080 RLU and 920 RLU
same,RLU,[3]; Log [M] -8.99,960 RLU and 1040 RLU
